Entries after “also recorded” stand apart in the source; their conditions may differ.
How the values were obtained:
[1] = system: ischemia-induced [^3H]-Glu release; assay: in vitro ischemia model: ischemia-induced [^3H]-Glu release from [^3H]-Gln-loaded hippocampal slices; format: cell-based, rat
Procedure: Rat hippocampus slices 350 μm thick were incubated in 3 ml of medium at 37° C. for 60 minutes. The medium contained 2 μM [^3H]-Gln to label the endogenous Gln pool. The slices then synthesized Glu. The slices were washed and then exposed to superfusion with a buffer for 50 minutes. At 5-minute intervals, [^3H]-Glu was extracted by anion exchange chromatography from a total of 15 superfusion samples and was measured by liquid scintillation counting. The fractional rates of [^3H]-Glu release were calculated from the [^3H]-Glu extracted from the superfusion samples and from the tissue slices after the superfusion.
The model of endogenously produced [^3H]-Glu was likewise used to generate ischemic conditions in vitro. To make a slice “quasi ischemic”, oxygen and glucose were replaced by nitrogen and sucrose during the superfusion. Sucrose was used in place of […] glucose in order to maintain the osmolarity of the superfusion fluid. It is known that sucrose cannot be cleaved in vitro to glucose and fructose. Unlike the tests in which the [^3H]-Glu release was induced electrically, and in order to simulate an ischemia as well as possible, the [^3H]-Glu release was carried out during the incubation and superfusion at 37° C.
Slices of 350 μm thickness were incubated at 37° C. for 60 min in 3 ml medium containing 2 μM [^3H]-Gln in order to label endogenous Gln pools. These slices subsequently were synthesizing Glu. The slices were washed and then superfused for 50 min with buffer. [^3H]-Glu was extracted from 15 5-min-superfusion samples and from the slices by anion-exchange chromatography and measured by liquid scintillation counting. Fractional rates of [^3H]-Glu release were calculated from extracted [^3H]-Glu in the superfusion samples and in the tissue slices obtained after superfusion.
To reproduce in vitro ischemic conditions the model of endogenously formed [^3H]-Glu was also used. To make a slice “quasi-ischemic”, oxygen was replaced by nitrogen and glucose was replaced by sucrose during superfusion. Sucrose was used instead of glucose in order to maintain the osmolarity of the superfusion fluid without being cleaved into glucose and fructose in vitro. At variance to the experiments on electrically evoked [^3H]-Glu release and in order to mimic ischemia as close as possible the experiments on ischemia-induced [^3H]-Glu release were performed at 37° C. throughout incubation and superfusion.
To assess the potency of glibenclamide concentration-inhibition curves of GBP-L on ischemia-induced [^3H]-Glu efflux were obtained in the absence and presence of 0.1 μM glibenclamide (see Jehle et al. 2000).

[2] = system: potassium-evoked release of [^3H]-noradrenaline; assay: potassium-evoked release of [^3H]-noradrenaline from rat neocortex slices (superfusion); format: cell-based; conditions: rat neocortical slices
Excerpt: (§1) The effects of GBP and GBP-L were compared by a very similar approach using rat and human neocortical slices.
(§2) Note that the deviations indicate confidence intervals (CI95), not standard errors.

[3] = system: potassium-evoked release of [^3H]-noradrenaline; assay: potassium-evoked release of [^3H]-noradrenaline from human neocortical slices (superfusion); format: cell-based; conditions: human neocortex slices
Excerpt: as §1, §2

[4] = system: electrically evoked release of [^3H]-NA; assay: electrically evoked release of [^3H]-NA from human brain slices; format: cell-based; conditions: quasi-physiological release
Excerpt: Note that the deviations indicate confidence intervals (CI95), not standard errors. In this model, GBP and its lactam seem equipotent. GBP and GBP-L are ineffective on the quasi-physiological, electrically evoked release of [^3H]-NA from both rat and human brain slices (not shown).

[5] = system: mitochondrial KATP channels; assay: mitochondrial KATP channels, depression of the mitochondrial membrane potential; format: biochemical
Procedure: The mode of action of GBP-L and GBP was tested with regard to mitochondrial KATP channels (Szewczyk and Marban 1999). […] Effects of GBP-L on the mitochondrial membrane potential were already seen at 5 μM. […] Thus, the neuroprotective effect of GBP-L seems to be mediated predominantly through mitochondrial KATP channels.

[6] = system: Mice transgenic for exon 1 of the human HD gene (line R 6/2); assay: mouse model of Huntington's disease, walking on a balance beam; format: in vivo
Excerpt: Mice transgenic for exon 1 of the human HD gene (line R 6/2), carrying CAGn=115-156 expansions, develop pronounced neuronal intranuclear inclusions, containing the proteins huntington and ubiquitin prior to the characteristic neurological phenotype with bradykinesia and seizures corresponding to the juvenile type of HD (Davies et al. 1997). The life time of these mice is up to 17 weeks. It was investigated whether gabapentin (GBP) and its derivative gabapentin-lactam (GBP-L, Jehle et al. 2000), may exert neuroprotective effects by using a battery of behavioral tests selected to measure motor aspects of fore-and hindlimb coordination and balance. In a first series of experiments mice were treated with GBP-L (100 mg/kg*day, 8 mice) and vehicle only (B mice) from the 6th week of their life until death using Alzet pumps implanted subcutaneously and delivering the test compounds systemically and continuously for up to four weeks. Empty Alzet pumps were repeatedly replaced. Animals were tested twice weekly by walking on a balance beam (width: 5 and 14 mm, Carter et al. 1999) up to week 15.5. A second series of experiments involved mice again treated with GBP-L (100 mg/kg*clay, 7 mice) and mice treated with GBP (100 mg/kg*day, 8 mice) from the 6th week of their life until death with week 17 being the maximum endpoint. In addition, immunohistochemical studies, using a monoclonal mouse antibody raised against ubiquitin, were done to analyse areas of ubiquitinated nuclear inclusions in three brain regions (hippocampus, neocortex and striatum) in a blinded fashion in order to compare mice treated with GBP-L or GBP.
This effect (E), as measured by the time necessary to pass the balance beam, was evaluated in each single mouse according to the function E=be^a time, yielding individual graphs with parameter estimates for a and b. The area under the curve, representing the motor ability of an individual mouse, was weighted by the life of this mouse. For instance, the area under the curve of a mouse which died at week 12.5 was divided by the ratio 12.5/15.5 in order to allow for possibly different life times of the mice.
Note that the observation period of the second series of experiments was 17 instead of 15.5 weeks only in the first set. Accordingly, the weighting by the life time now used the divisor 17 Instead of 15.5.

[7] = system: potassium-evoked release of [^3H]-noradrenaline; conditions: rat neocortex slices; Freiman et al. 2001, FIG. 1.0; cited from earlier work
[8] = system: electrically evoked release of Glu; assay: electrically evoked [^3H]-Glu release from [^3H]-Gln-loaded hippocampus slices; format: cell-based, rat; conditions: 540 pulses of 4 ms, 6 Hz, 60 mA, room temperature, 100 μM PDC, added 15 min before second stimulation
[9] = second series, 100 mg/kg*day, observation period 17 weeks
[10] = O2 replaced by N2, glucose by sucrose, 37° C., 3 μM PDC

Structure (SMILES) | diminution of ischemia-induced [^3H]-Glu efflux [1] [%] | K^+-evoked [^3H]-NA release (in words) [2] | K^+-evoked [^3H]-NA release (in words) [3] | electrically evoked release of [^3H]-NA (in words) [4] | activity at mitochondrial KATP channels (in words) [5] | mean weighted area representing the motor ability on the 5 mm beam [6, 9] | mean weighted area representing the motor ability on the 14 mm beam [6, 9] | potassium-evoked release of [^3H]-noradrenaline (in words) [7] | electrically evoked release of Glu (in words) [8] | electrically evoked release of Glu (in words) ([8]; listed as gabapentin lactam) | ischemia-induced [^3H]-Glu output (in words) [1, 10] | reduction of ischemia-induced [^3H]-Glu release (area from t=15 min) [1, 10] [%] | concentration at which effects on the mitochondrial membrane potential were already seen [5] [µM] | EC50 ([5]; read-out: half-maximal depression of the mitochondrial membrane potential) [µM] | motor abilities compared to vehicle animals (in words) ([6]; first series, 100 mg/kg*day) | mean weighted area representing the motor ability on the 5 mm beam ([6]; first series, 100 mg/kg*day s.c. Alzet pumps from 6th week, up to week 15.5, vehicle 44.60) | mean weighted area representing the motor ability on the 14 mm beam ([6]; first series, 100 mg/kg*day, up to week 15.5, vehicle 31.54)
NCC1(CC(=O)O)CCCCC1 [GBP, gabapentin, reference compound] | 35.5 | inhibited similarly | inhibited similarly | ineffective | hardly effective | 77.33 | 65.71 | inhibitory effects | – | – | – | – | – | – | – | – | –
O=C1CC2(CCCCC2)CN1 [GBP-L, 8-azaspiro[5,4]decan-9-one] | – | inhibited similarly | inhibited similarly | ineffective | potent activator | 43.75 | 30.46 | – | seems not to be influenced | not influenced; also recorded: unaffected | reduces the neurotoxic [^3H]-Glu output significantly | 42.5 | 5 | 85 | markedly and significantly improved | 26.64 | 17.16

Source: patent US6984659B2, “2-pyrrolidinone derivatives substituted at position 4 for reducing the extracellular glutamate level” (priority 1997, dated 2006)
